Experimental data as given in patent US20250051338A1, “TYK2 DEGRADERS AND USES THEREOF” (Kymera Therapeutics, Inc., priority 2021, published 2025).

Tests used:
Format in all cases: cell-based
[1] = molecular target: T1, TYK2 (Homo sapiens, UniProt P29597); assay: TYK2 degradation MSD assay in human PBMC cells; set-up: endogenous in cells; host or cells: human PBMC; details: 4 to 24 hours incubation, read-out: TYK2 MSD DC50 rating in human PBMC
Method in brief: (§1)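 Cells (0.4 million per well) were treated with a 9-point, 1:3 compound series from a top concentration of 1 to 10 μM for 4 to 24 hours at 37° C, then lysed in RIPA with protease/phosphatase inhibitors. Remaining TYK2 was quantified by sandwich MSD immunoassay; DC50 came from four-parameter nonlinear fits.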

[2] = molecular target: T1, TYK2; assay: TYK2 degradation MSD assay in OCI-LY10 cells; set-up: endogenous in cells; host or cells: EBV-B cells; details: 4 to 24 hours incubation, read-out: TYK2 MSD DC50 rating in OCI-LY10
Method in brief: as §1

[3] = molecular target: T1, TYK2; assay: TYK2 degradation MSD assay in EBV-B cells; set-up: endogenous in cells; host or cells: EBV-B cells; details: 4 to 24 hours incubation, read-out: TYK2 MSD DC50 rating in EBV-B
Method in brief: as §1

T1 sequence (P29597 whole entry): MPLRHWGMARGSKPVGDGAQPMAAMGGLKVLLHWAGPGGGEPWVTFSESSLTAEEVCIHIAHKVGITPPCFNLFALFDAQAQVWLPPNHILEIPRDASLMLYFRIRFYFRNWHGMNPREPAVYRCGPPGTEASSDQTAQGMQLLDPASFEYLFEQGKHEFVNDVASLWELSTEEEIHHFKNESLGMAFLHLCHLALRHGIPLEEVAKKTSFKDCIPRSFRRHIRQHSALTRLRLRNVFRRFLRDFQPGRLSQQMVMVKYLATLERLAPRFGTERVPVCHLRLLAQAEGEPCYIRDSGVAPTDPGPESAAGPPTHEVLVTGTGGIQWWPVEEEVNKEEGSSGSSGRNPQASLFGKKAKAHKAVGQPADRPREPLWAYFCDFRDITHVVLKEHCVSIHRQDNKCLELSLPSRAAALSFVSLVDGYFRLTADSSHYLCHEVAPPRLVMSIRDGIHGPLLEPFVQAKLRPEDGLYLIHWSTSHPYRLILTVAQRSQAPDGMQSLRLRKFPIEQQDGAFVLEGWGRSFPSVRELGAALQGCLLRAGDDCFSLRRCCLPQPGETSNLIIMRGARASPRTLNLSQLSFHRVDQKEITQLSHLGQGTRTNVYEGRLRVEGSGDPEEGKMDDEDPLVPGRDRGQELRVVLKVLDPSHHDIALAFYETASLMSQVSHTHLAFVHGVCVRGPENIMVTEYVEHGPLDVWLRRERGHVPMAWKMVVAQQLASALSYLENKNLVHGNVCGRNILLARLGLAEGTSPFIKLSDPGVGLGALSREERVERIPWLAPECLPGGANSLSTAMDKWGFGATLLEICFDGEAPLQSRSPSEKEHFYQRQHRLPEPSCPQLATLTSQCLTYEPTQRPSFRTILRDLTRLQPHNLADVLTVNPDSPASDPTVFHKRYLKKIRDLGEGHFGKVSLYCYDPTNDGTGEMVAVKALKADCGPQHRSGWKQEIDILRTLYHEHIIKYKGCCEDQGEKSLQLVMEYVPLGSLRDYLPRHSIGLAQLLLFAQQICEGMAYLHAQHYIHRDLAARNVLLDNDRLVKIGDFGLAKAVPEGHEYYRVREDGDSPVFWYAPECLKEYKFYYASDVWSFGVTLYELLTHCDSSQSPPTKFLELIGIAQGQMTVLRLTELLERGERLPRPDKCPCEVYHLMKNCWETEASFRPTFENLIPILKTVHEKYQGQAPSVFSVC

DC50 [1] [nM] | DC50 [2] [nM] | DC50 [3] [nM] | Compound
> 100 | 1 to 10 | > 100 | CNc1cc(Nc2cccc(-c3ccc(CN4CCN(C5CCC(c6ccc(-c7ccc8c(c7)n(C)c(=O)n8C7CCC(=O)NC7=O)cc6)CC5)CC4)cn3)c2)nn2c(C(=O)N[C@@H]3C[C@@H]3F)cnc12 (stereo partly drawn) [Example K463]
> 100 | 1 to 10 | > 100 | CNc1cc(Nc2cccc(-c3ccc(CN4CC5(CCN(c6cccc7c6n(C)c(=O)n7C6CCC(=O)NC6=O)CC5)C4)cn3)c2)nn2c(C(=O)N[C@@H]3C[C@@H]3F)cnc12 (stereo partly drawn) [Example K464]
> 100 | 1 to 10 | > 100 | CNc1cc(Nc2cccc(N3CCC(CN4CCC(C#Cc5cccc6c5n(C)c(=O)n6C5CCC(=O)NC5=O)CC4)CC3)c2)nn2c(C(=O)N[C@@H]3C[C@@H]3F)cnc12 (stereo partly drawn) [Example K465]
> 100 | > 100 | < 1 | CNc1cc(Nc2cccc(N3CCN(CC4CCN(c5ccc(-c6ccc7c(c6)n(C)c(=O)n7C6CCC(=O)NC6=O)cc5)CC4)CC3)c2)nn2c(C(=O)N[C@@H]3C[C@@H]3F)cnc12 (stereo partly drawn) [Example K466]
> 100 | > 100 | 10 to 100 | CNc1cc(Nc2cccc(-c3ccc(CN4CCN(c5cccc6c(N7CCC(=O)NC7=O)cncc56)CC4)cn3)c2)nn2c(C(=O)N[C@@H]3C[C@@H]3F)cnc12 [Example K467]
10 to 100 | > 100 | > 100 | O=C1CCN(c2cnc3cc(CCOCCOCCOCCOCCNc4cc(Nc5cccn(-c6ccccn6)c5=O)nn5c(C(=O)N[C@@H]6C[C@@H]6F)cnc45)ccn23)C(=O)N1 [Example K468]
> 100 | < 1 | < 1 | CNc1cc(Nc2cccc(-c3ccc(CN4CCN(c5ccc(-c6ccc7c(c6)n(C)c(=O)n7C6CCC(=O)NC6=O)cc5)CC4)cn3)c2OC)nn2c(C(=O)N[C@@H]3C[C@@H]3F)cnc12 (stereo partly drawn) [Example K479]
> 100 | < 1 | > 100 | CNc1cc(-c2ccc(-c3ccc(CN4CCC(N5CC(N6CCN(c7ccc8c(c7)n(C)c(=O)n8C7CCC(=O)NC7=O)CC6)C5)CC4)cn3)cc2)nn2c(C(=O)N[C@@H]3C[C@@H]3F)cnc12 (stereo partly drawn) [Example K480]
> 100 | > 100 | > 100 | CNc1cc(N(C)c2cccc(-c3ccc(CN4CCN(c5ccc(-c6ccc7c(c6)n(C)c(=O)n7C6CCC(=O)NC6=O)cc5)CC4)cn3)c2)nn2c(C(=O)N[C@@H]3C[C@@H]3F)cnc12 (stereo partly drawn) [Example K481]
> 100 | 1 to 10 | > 100 | CNc1cc(Nc2cccc(-c3ccc(CN4CCN(c5ccc(-c6ccc7c(c6)n(C)c(=O)n7C6CCC(=O)NC6=O)cc5)CC4)cn3)c2)nn2c(C(=O)NC3CC3OC)cnc12 (stereo not drawn) [Example K482]
> 100 | 1 to 10 | > 100 | CNc1cc(Nc2cccc(-c3ccc(CN4CCN(c5ccc(-c6ccc7c(c6)n(C)c(=O)n7C6CCC(=O)NC6=O)cc5)CC4)cn3)c2)nn2c(C(=O)NC3CCC3)cnc12 (stereo not drawn) [Example K483]
> 100 | > 100 | > 100 | Cn1c(=O)n(C2CCC(=O)NC2=O)c2ccc(-c3ccc(N4CCN(Cc5ccc(-c6cccc(Nc7cc(C8CC8)c8ncc(C(=O)N[C@@H]9C[C@@H]9F)n8n7)c6)nc5)CC4)cc3)cc21 (stereo partly drawn) [Example K484]
> 100 | < 1 | > 100 | CNc1cc(Nc2cccc(CN3CCN(c4ccc(-c5ccc6c(c5)n(C)c(=O)n6C5CCC(=O)NC5=O)cc4)CC3)c2)nn2c(C(=O)N[C@@H]3C[C@@H]3F)cnc12 (stereo partly drawn) [Example K486]
> 100 | < 1 | > 100 | CNc1cc(Nc2cccc(-c3ccc(CN4CCC(N5CC(N6CCN(c7ccc8c(c7)n(C)c(=O)n8C7CCC(=O)NC7=O)CC6)C5)CC4)cn3)c2OC)nn2c(C(=O)N[C@@H]3C[C@@H]3F)cnc12 (stereo partly drawn) [Example K487]
> 100 | 1 to 10 | > 100 | CNc1cc(Nc2cccc(-c3ccc(CN4CCN(c5ccc(-c6cccc7c6n(C)c(=O)n7C6CCC(=O)NC6=O)cc5)CC4)cn3)c2OC)nn2c(C(=O)N[C@@H]3C[C@@H]3F)cnc12 (stereo partly drawn) [Example K488]
> 100 | > 100 | > 100 | CNc1cc(Nc2cccc(-c3ccc(CN4CCN(C(=O)c5ccc(Cl)c(N6CCC(=O)NC6=O)c5)CC4)cn3)c2OC)nn2c(C(=O)N[C@@H]3C[C@@H]3F)cnc12 [Example K489]
> 100 | < 1 | > 100 | CNc1cc(Nc2cccc(CN3CCC(CN4CCN(c5ccc6c(c5)n(C)c(=O)n6C5CCC(=O)NC5=O)CC4)CC3)c2)nn2c(C(=O)N[C@@H]3C[C@@H]3F)cnc12 (stereo partly drawn) [Example K490]

DC50 [1] [nM] | DC50 [2] [nM] | DC50 [3] [nM] | Compound
> 100 | 10 to 100 | > 100 | CNc1cc(N2CCOc3c(-c4ccc(CN5CCN(c6ccc(-c7ccc8c(c7)n(C)c(=O)n8C7CCC(=O)NC7=O)cc6)CC5)cn4)cccc32)nn2c(C(=O)N[C@@H]3C[C@@H]3F)cnc12 (stereo partly drawn) [Example K491]
> 100 | 10 to 100 | > 100 | CNc1cc(-c2ccc(-c3ccc(CN4CCN(c5ccc(-c6ccc7c(c6)n(C)c(=O)n7C6CCC(=O)NC6=O)cc5)CC4)cc3)c3nccn23)nn2c(C(=O)N[C@@H]3C[C@@H]3C)cnc12 (stereo partly drawn) [Example K492]
> 100 | 1 to 10 | > 100 | CNc1cc(-c2ccc(-c3ccc(CN4CCC(CN5CCN(c6ccc7c(c6)n(C)c(=O)n7C6CCC(=O)NC6=O)CC5)CC4)cn3)cc2)nn2c(C(=O)N[C@@H]3C[C@@H]3F)cnc12 (stereo partly drawn) [Example K493]
> 100 | 10 to 100 | > 100 | CNc1cc(N2CCc3c(-c4ccc(CN5CCN(c6ccc(-c7cccc8c7n(C)c(=O)n8C7CCC(=O)NC7=O)cc6)CC5)cn4)cccc32)nn2c(C(=O)N[C@@H]3C[C@@H]3F)cnc12 (stereo partly drawn) [Example K494]
> 100 | < 1 | > 100 | CNc1cc(Nc2cccn(-c3ccc(CN4CCN(c5ccc(-c6ccc7c(c6)n(C)c(=O)n7C6CCC(=O)NC6=O)cc5)CC4)cn3)c2=O)nn2c(C(=O)N[C@@H]3C[C@@H]3F)cnc12 (stereo partly drawn) [Example K495]
> 100 | 1 to 10 | > 100 | CNC1=CC(Nc2cccc(-c3ccc(CN4CCN(CC5CCN(C(=O)c6ccc(Cl)c(N7CCC(=O)NC7=O)c6)CC5)CC4)cn3)c2)=NC2C(C(=O)N[C@@H]3C[C@@H]3F)=CN=C12 (stereo partly drawn) [Example K496]
> 100 | < 1 | < 1 | CNc1cc(N2CCc3c(-c4ccc(CN5CC6(CCN(C(=O)c7ccc(Cl)c(N8CCC(=O)NC8=O)c7)CC6)C5)cn4)cccc32)nn2c(C(=O)N[C@@H]3C[C@@H]3F)cnc12 [Example K498]
> 100 | > 100 | > 100 | CNc1cc(Nc2cccc(-c3ccc(CN4CCN(c5ccc(-c6ccc7c(c6)n(C)c(=O)n7C6CCC(=O)NC6=O)cc5)CC4)cn3)c2)nn2c(C(=O)N[C@@H]3C[C@@H]3F)cnc12 (stereo partly drawn) [Example K499]
> 100 | > 100 | > 100 | CNc1cc(Nc2cccc(-c3ccc(CN4CC5(CCN(c6ccc(C7CCC(=O)NC7=O)cc6)CC5)C4)cn3)c2)nn2c(C(=O)N[C@@H]3C[C@@H]3F)cnc12 (stereo partly drawn) [Example K500]
> 100 | 10 to 100 | > 100 | CNc1cc(N2CCCc3c(-c4ccc(CC5CCC(c6ccc(-c7ccc8c(c7)n(C)c(=O)n8C7CCC(=O)NC7=O)cc6)CC5)cn4)cccc32)nn2c(C(=O)N[C@@H]3C[C@@H]3F)cnc12 (stereo partly drawn) [Example K501]
> 100 | 1 to 10 | > 100 | Cc1cc(Nc2cccc(-c3ccc(CN4CCN(c5ccc(-c6ccc7c(c6)n(C)c(=O)n7C6CCC(=O)NC6=O)cc5)CC4)cn3)c2)nn2c(C(=O)N[C@@H]3C[C@@H]3F)cnc12 (stereo partly drawn) [Example K502]
> 100 | > 100 | > 100 | CNc1cc(Nc2cccc(N3CCC(CN4CCN(c5cccc6c(C7CCC(=O)NC7=O)cncc56)CC4)CC3)c2)nn2c(C(=O)N[C@@H]3C[C@@H]3F)cnc12 (stereo partly drawn) [Example K503]
> 100 | > 100 | < 1 | CNc1cc(Nc2cccc(-c3ccc(CN4CCN(CCCOc5ccc(C6CCC(=O)NC6=O)cc5)CC4)cn3)c2)nn2c(C(=O)N[C@@H]3C[C@@H]3F)cnc12 (stereo partly drawn) [Example K504]
> 100 | 1 to 10 | 10 to 100 | CNc1cc(N2CCc3c(-c4ccc(CN5CCN(c6ccc(-c7ccc8c(c7)n(C)c(=O)n8C7CCC(=O)NC7=O)cc6)CC5)cn4)cccc32)nn2c(C(=O)N[C@@H]3C[C@@H]3F)cnc12 (stereo partly drawn) [Example K505]
> 100 | 1 to 10 | 10 to 100 | CNc1cc(Nc2cccc(-c3ccc(CN4CC5(CCN(C(=O)c6ccc(Cl)c(N7CCC(=O)NC7=O)c6)CC5)C4)cn3)c2)nn2c(C(=O)N[C@@H]3C[C@@H]3F)cnc12 [Example K506]
> 100 | < 1 | 1 to 10 | CNc1cc(Nc2cccc(-c3ccc(CN4CCC(CCc5cccc6c5n(C)c(=O)n6C5CCC(=O)NC5=O)CC4)cn3)c2)nn2c(C(=O)N[C@@H]3C[C@@H]3F)cnc12 (stereo partly drawn) [Example K507]
> 100 | < 1 | 1 to 10 | CNc1cc(Nc2cccc(-c3ccc(CN4CCN(c5ccc(-c6ccc7c(c6)n(C)c(=O)n7C6CCC(=O)NC6=O)cc5)CC4)cn3)c2)nc2c(C(=O)N[C@@H]3C[C@@H]3F)cnn12 (stereo partly drawn) [Example K508]
